According to paper PMC8881063 (Journal of Enzyme Inhibition and Medicinal Chemistry, 2022):
Entries after “also recorded” stand apart in the source; their conditions may differ.

How the values were obtained:
[1] = molecular target: T1, recombinant human MAO-A (Homo sapiens, UniProt P21397); experiment: hMAO-A inhibition, spectrophotometric assay; format: biochemical; conditions: for inhibition at 10 µM: single dose concentration of 10 µM
T1 sequence (P21397 1-527): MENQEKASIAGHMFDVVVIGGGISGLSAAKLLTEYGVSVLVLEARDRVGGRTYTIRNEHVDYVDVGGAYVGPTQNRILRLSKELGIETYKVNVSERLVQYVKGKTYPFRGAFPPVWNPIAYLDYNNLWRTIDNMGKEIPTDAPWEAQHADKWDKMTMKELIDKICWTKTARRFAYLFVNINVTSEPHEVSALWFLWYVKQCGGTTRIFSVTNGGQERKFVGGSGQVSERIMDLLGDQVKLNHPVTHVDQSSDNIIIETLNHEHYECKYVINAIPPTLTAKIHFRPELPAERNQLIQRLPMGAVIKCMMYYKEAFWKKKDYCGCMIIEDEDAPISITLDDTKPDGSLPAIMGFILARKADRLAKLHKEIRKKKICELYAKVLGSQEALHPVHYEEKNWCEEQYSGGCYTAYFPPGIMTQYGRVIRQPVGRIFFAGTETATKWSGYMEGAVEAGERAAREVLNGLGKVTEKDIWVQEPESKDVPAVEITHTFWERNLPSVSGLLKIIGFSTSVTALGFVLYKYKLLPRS
Excerpt: Two different MAO isoforms are known.

[2] = molecular target: T2, MAO-B (Homo sapiens, UniProt P27338); experiment: hMAO-B inhibition, spectrophotometric assay; conditions: for inhibition at 10 µM: read-out: MAO-B % Inhibition, single dose concentration of 10 µM; for Selectivity index for inhibition of MAO-B: IC50 MAO-A divided by IC50 MAO-B
T2 sequence (P27338 1-520): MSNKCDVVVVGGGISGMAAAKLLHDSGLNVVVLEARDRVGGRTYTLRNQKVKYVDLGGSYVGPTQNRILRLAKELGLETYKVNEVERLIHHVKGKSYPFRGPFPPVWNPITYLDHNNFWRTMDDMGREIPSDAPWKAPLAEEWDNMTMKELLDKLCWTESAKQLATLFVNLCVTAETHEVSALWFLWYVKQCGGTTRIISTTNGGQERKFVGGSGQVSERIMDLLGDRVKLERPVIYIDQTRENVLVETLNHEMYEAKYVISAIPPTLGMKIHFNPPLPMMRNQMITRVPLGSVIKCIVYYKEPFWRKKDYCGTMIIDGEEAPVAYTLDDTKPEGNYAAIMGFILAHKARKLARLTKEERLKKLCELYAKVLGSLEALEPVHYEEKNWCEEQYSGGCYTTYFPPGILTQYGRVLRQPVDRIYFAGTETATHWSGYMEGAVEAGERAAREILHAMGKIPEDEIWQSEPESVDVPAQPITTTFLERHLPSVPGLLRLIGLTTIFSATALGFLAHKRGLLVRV
Protocol: The inhibitory activities of the compounds against hMAO-A and hMAO-B enzymes were evaluated referring to a previously described method (Supporting information)[49].

[3] = system: BV2 cells; experiment: BV2 cell viability, WST-1 assay; format: cell-based; conditions: doses of 1, 10, 30 and 50 µM
Excerpt: Promising antineurodegenrative candidate molecules should not impair viability of CNS cells. Microglia are critical cells within CNS involved in microglia–neuron communications and are responsible for maintenance of brain integrity and health[61]^,[62]. However, under neuroinflammatory conditions, aberrant activation of microglia contributes to neurodegeneration and disease progression. In this regard, suppression of the abnormal activation while maintenance of viability of microglia is important considerations. […] The viability assay was carried out using the water-soluble tetrazolium reagent WST-1 which eliminates the formazan dissolution step requested in case of MTT[65] employing multiple doses of 1, 10, 30, and 50 µM. […] In lieu of this, it might be inferred that these compounds showing effective inhibition of MAO-B activity and triggering no impairment of microglia viability are good candidates might be advanced for further evaluation towards the development of multifunctional molecules for neurodegenerative diseases such as PD.
The impact of the compounds on the viability of cells was performed by the well-known WST-1 assay method as described in the Supporting information.

[4] = molecular target: T2, MAO-B; experiment: MAO-B inhibition kinetic study (Michaelis–Menten, Lineweaver–Burk); format: biochemical
Protocol: (§1) To get insights into MAO-B inhibition reaction by compounds 1p and 1y, a kinetic study and reversibility testing were conducted. As illustrated in Figure 4(A,B), Michaelis–Menten graphs were constructed using different concentrations of compounds 1p and 1y employing different concentrations benzylamine as a substrate.
(§2) Kinetics of the inhibition of MAO-B and testing of reversibility were conducted according to literature-reported protocols[59] as indicated in the Supporting information.

[5] = molecular target: T2, MAO-B; experiment: MAO-B inhibition reversibility testing (washing); format: biochemical; conditions: enzymatic activity after washing
Protocol: as §1, §2

[6] = system: LPS-treated BV2 cells (NO production); experiment: LPS-induced production of nitric oxide in BV2 cells; format: cell-based; conditions: different concentrations, Figure 3(A)
Protocol: (§3) Neuroinflammation is a crucial component in neurodegenerative diseases. Chronic activation of microglia, which are the brain-resident form of macrophages, results in sustained production of several proinflammatory mediators including glial NO, PGE2, and others molecules that are implicated in multiple neurodegenerative diseases. […] In this regard, LPS-treated BV2 cells were incubated with or without different concentrations of each compound. […] Based on collective results of antineuroinflammatory activity evaluation, in conjugation with above-conducted MAO inhibitions’ assays, compound 1p might be claimed as a promising lead compound eliciting polypharmacological effects combining inhibition of neuroinflammation and MAO-B activity; both processes are crucial components of neurodegenerative diseases such as PD.
(§4) The abilities of compounds to inhibit the induced production of NO and PGE2 were assessed by well-known protocol as indicated in the Supporting information.

[7] = system: LPS-treated BV2 cells (PGE2 production); experiment: LPS-induced production of PGE2 in BV2 cells; format: cell-based; conditions: different concentrations, Figure 3(B)
Protocol: as §3, §4

## O=C1/C(=C/c2ccccc2O)Oc2cc(O)ccc21 [Compound 1a]
[1]
  IC50: > 10 µM
  inhibition at 10 µM: 9.02%
[2]
  IC50: > 10 µM
  inhibition at 10 µM: < 50%

## O=C1/C(=C/c2cccc(O)c2)Oc2cc(O)ccc21 [Compound 1b]
[1]
  IC50: > 10 µM
  inhibition at 10 µM: 16.6%
[2]
  IC50: > 10 µM
  inhibition at 10 µM: 13.6%

## O=C1/C(=C/c2cccc(O)c2O)Oc2cc(O)ccc21 [Compound 1c, (Z)-2–(2,3-Dihydroxybenzylidene)-6-hydroxybenzofuran-3(2H)-one]
[1]
  IC50: > 10 µM
  inhibition at 10 µM: 46.2%
[2]
  IC50: 3 µM
  Selectivity index for inhibition of MAO-B: >3.34
  inhibition at 10 µM: 58.9%

## O=C1/C(=C/c2ccc(O)cc2O)Oc2cc(O)ccc21 [Compound 1d]
[1]
  IC50: > 10 µM
  inhibition at 10 µM: 44.1%
[2]
  IC50: > 10 µM
  inhibition at 10 µM: 48.3%

## O=C1/C(=C/c2ccc(O)c(O)c2)Oc2cc(O)ccc21 [Compound 1e]
[1]
  IC50: 4.66 µM
  inhibition at 10 µM: 64.9%
[2]
  IC50: 2.41 µM
  Selectivity index for inhibition of MAO-B: 1.93
  inhibition at 10 µM: 61.8%

## O=C1/C(=C/c2cc(O)ccc2O)Oc2cc(O)ccc21 [Compound 1f]
[1]
  IC50: 7.77 µM
  inhibition at 10 µM: 53.3%
[2]
  IC50: 3.52 µM
  Selectivity index for inhibition of MAO-B: 2.21
  inhibition at 10 µM: 61.4%

## O=C1/C(=C/c2cc(O)cc(O)c2)Oc2cc(O)ccc21 [Compound 1g, (Z)-2–(3,5-Dihydroxybenzylidene)-6-hydroxybenzofuran-3(2H)-one]
[1]
  IC50: > 10 µM
  inhibition at 10 µM: 35.7%
[2]
  IC50: > 10 µM
  inhibition at 10 µM: 12.8%

## O=C1/C(=C/c2cc(O)c(O)c(O)c2)Oc2cc(O)ccc21 [Compound 1h]
[1]
  IC50: > 10 µM
  inhibition at 10 µM: 49.5%
[2]
  IC50: > 10 µM
  inhibition at 10 µM: 47.5%

## COc1ccccc1/C=C1\Oc2cc(O)ccc2C1=O [Compound 1i]
[1]
  IC50: > 100 µM
  inhibition at 10 µM: 5.49%
[2]
  IC50: 1.84 µM
  Selectivity index for inhibition of MAO-B: >54
  inhibition at 10 µM: 75.5%

## COc1cccc(/C=C2\Oc3cc(O)ccc3C2=O)c1 [Compound 1j]
[1]
  IC50: > 100 µM
  inhibition at 10 µM: 7.43%
[2]
  IC50: 2.41 µM
  Selectivity index for inhibition of MAO-B: >41
  inhibition at 10 µM: 73.2%

## COc1ccc(/C=C2\Oc3cc(O)ccc3C2=O)cc1 [Compound 1k]
[1]
  IC50: 6.98 µM
  inhibition at 10 µM: 53%
[2]
  IC50: 0.365 µM
  inhibition at 10 µM: 94.6%

## COc1cccc(/C=C2\Oc3cc(O)ccc3C2=O)c1OC [Compound 1l]
[1]
  IC50: > 100 µM
  inhibition at 10 µM: -2.21%
[2]
  IC50: 3.52 µM
  Selectivity index for inhibition of MAO-B: >28
  inhibition at 10 µM: 70.8%

## COc1ccc(OC)c(/C=C2\Oc3cc(O)ccc3C2=O)c1 [Compound 1m]
[1]
  IC50: > 10 µM
  inhibition at 10 µM: -0.29%
[2]
  IC50: > 10 µM
  inhibition at 10 µM: 46.3%

## COc1ccc(/C=C2\Oc3cc(O)ccc3C2=O)cc1OC [Compound 1n]
[1]
  IC50: > 10 µM
  inhibition at 10 µM: 4.52%
[2]
  IC50: > 10 µM
  inhibition at 10 µM: 42.6%

## COc1cc(/C=C2\Oc3cc(O)ccc3C2=O)cc(OC)c1 [Compound 1o]
[1]
  IC50: > 10 µM
  inhibition at 10 µM: 0.37%
[2]
  IC50: > 10 µM
  inhibition at 10 µM: 41.2%

## COCOc1ccc(/C=C2\Oc3cc(O)ccc3C2=O)cc1 [Compound 1q]
[1]
  IC50: > 100 µM
  inhibition at 10 µM: 24.5%
[3]
  Impact on viability of BV2 cells: none of the tested concentrations
[2]
  IC50: 0.593 µM
  Selectivity index for inhibition of MAO-B: >168
  inhibition at 10 µM: 89%

## COc1ccc2c(c1)O/C(=C\c1ccccc1O)C2=O [Compound 1r]
[1]
  IC50: > 10 µM
  inhibition at 10 µM: 2.29%
[2]
  IC50: > 10 µM
  inhibition at 10 µM: 22.5%

## COc1ccc2c(c1)O/C(=C\c1cccc(O)c1)C2=O [Compound 1s]
[1]
  IC50: > 10 µM
  inhibition at 10 µM: 7.73%
[2]
  IC50: > 10 µM
  inhibition at 10 µM: 48.9%

## COc1ccc2c(c1)O/C(=C\c1ccc(O)cc1)C2=O [Compound 1t]
[1]
  IC50: > 100 µM
  inhibition at 10 µM: 8.54%
[2]
  IC50: 1.33 µM
  Selectivity index for inhibition of MAO-B: >75
  inhibition at 10 µM: 89.6%

## COc1ccc2c(c1)O/C(=C\c1cccc(O)c1O)C2=O [Compound 1u, (Z)-2–(2,3-Dihydroxybenzylidene)-6-methoxybenzofuran-3(2H)-one]
[1]
  IC50: 7.04 µM
  inhibition at 10 µM: 52.8%
[2]
  IC50: 2.41 µM
  inhibition at 10 µM: 65%

## COc1ccc2c(c1)O/C(=C\c1ccc(O)cc1O)C2=O [Compound 1v]
[1]
  IC50: 8.2 µM
  inhibition at 10 µM: 55.7%
[2]
  IC50: 6.04 µM
  inhibition at 10 µM: 66.7%

## COc1ccc2c(c1)O/C(=C\c1ccc(O)c(O)c1)C2=O [Compound 1w]
[1]
  IC50: 5.62 µM
  inhibition at 10 µM: 60.8%
[2]
  IC50: 2.41 µM
  inhibition at 10 µM: 70.5%

## COc1ccc2c(c1)O/C(=C\c1ccccc1OC)C2=O [Compound 1x]
[1]
  IC50: > 100 µM
  inhibition at 10 µM: 21.6%
[3]
  Impact on viability of BV2 cells: none of the tested concentrations
[2]
  IC50: 0.593 µM
  Selectivity index for inhibition of MAO-B: >168
  inhibition at 10 µM: 89.5%

## COc1cccc(/C=C2\Oc3cc(OC)ccc3C2=O)c1 [Compound 1y]
[1]
  IC50: > 100 µM
  inhibition at 10 µM: 3.26%
[3]
  Impact on viability of BV2 cells: none of the tested concentrations
[4]; Lineweaver–Burk plots
  Type of MAO-B inhibition: competitive inhibitors; also recorded: Competitive inhibition
[4]; benzylamine as substrate
  Ki: 0.0291 µM
[5]
  Reversibility of MAO-B inhibition: washing restored the enzymatic activity
[2]
  IC50: 0.201 µM
  Selectivity index for inhibition of MAO-B: >496
  inhibition at 10 µM: 99.2%

## O=C1/C(=C/c2ccc(O)cc2)Oc2cc(O)ccc21 [Hispidol, hispidol, reference compound]
[1]
  IC50: 5.28 µM
  inhibition at 10 µM: 69.3%
[3]
  Impact on viability of BV2 cells: cytotoxic effects
[6]
  Effect on LPS-induced NO production by BV2 cells: significant inhibition of NO production
[7]
  Effect on LPS-induced PGE2 production by BV2 cells: effectively suppressed the induced-PGE2 production

## C[C@H](NCc1ccc(OCc2cccc(F)c2)cc1)C(N)=O [Safinamide, safinamide, reference compound]
[3]
  Impact on viability of BV2 cells: cytotoxic effects
[6]
  Effect on LPS-induced NO production by BV2 cells: significant inhibition of NO production
[7]
  Effect on LPS-induced PGE2 production by BV2 cells: undesirable dose-dependent increase in PGE2 production
